# Experimental data from patent US20260217701A1, “SELECTIVE BET INHIBITORS AND USES THEREOF” (Tay Therapeutics Limited, priority 2022, published 2026).
# Marks after values point to notes of the source that are not given here.
# What was measured:
# BRD4 BD1 = target: T1, BRD4 BD1 (Homo sapiens, UniProt O60885); assay: NanoBRET bromodomain assay, NanoLuc-BRD4-BD1 in HEK293 cells; assay type: binding
# T1 construct: HEK293 cells were transfected using NanoLuc-BRD4-BD1 or NanoLuc-BRD4-BD2 fusion vectors
# Protocol: Exemplary compounds of the disclosure are active against BRD4 BD2 and selective over BRD4 BD1. BRD4 is a representative example of the BET family, as the binding sites of all BET family members are structurally similar. […] IC50s and fold selectivity's are determined as described below and are represented in Table 1.
# (§1) Plates were then incubated at 37° C.+5% CO2 incubator for 2 hours.
# (§2) Fold Selectivity Calculated (IC50 BD1/IC50 BD2).
# BRD4 BD2 = target: T2, BRD4 BD2 (Homo sapiens, UniProt O60885); assay: NanoBRET bromodomain assay, NanoLuc-BRD4-BD2 in HEK293 cells; assay type: binding; conditions: for Fold Selectivity BRD4 BD1/BD2: IC50 BD1/IC50 BD2, qualitative if an IC50 is at the upper limit
# T2 construct: HEK293 cells were transfected using NanoLuc-BRD4-BD1 or NanoLuc-BRD4-BD2 fusion vectors
# Protocol: as §1, §2
# EAE study: body weight = assay type: in vivo, C57BI/6 mice; conditions: for Mean Body Weight / Mean Body Weight (% of Day −1): FTY720 (Group 5)
# Protocol: (§3) Experimental Method H: EAE in animals treated with a BET inhibitor and vehicle. Animals were assigned to the groups outlined in Table 38.
# (§4) Compound A may be formulated as illustrated in Experimental Method A (see Table 2E.). A 40 mg/mL stock solution of Compound A in DMSO was prepared and aliquots stored at −20° C. On each day of preparation an e.g., 0.75 mL aliquot of thawed stock was diluted with an equal volume of DMSO. The remaining vehicle components were added to provide the highest dose and then diluted with vehicle to provide lower doses. A 30 mg/mL stock solution of FTY720 in ethanol was prepared and stored at −20° C. Daily, the stock solution was diluted with room temperature water to a final dosing concentration of 0.6 mg/mL. Formulated Compound A, FTY720 and vehicle were each at room temperature for dosing.
# (§5) Female C57BI/6 mice (9 weeks old) were acclimated for seven days prior to study initiation. On Day-1, animals were assigned to groups in a balanced manner to achieve similar average weights across the different groups. Chronic EAE was induced in female C57BI/6 mice following immunization with an emulsion of MOG35-55/CFA on Day 0, followed by an injection of pertussis toxin two hours after the initial immunization. On Day 1, a second injection of pertussis toxin was administered 24 hours after the initial immunization. Mice were injected subcutaneously at two sites on the back with the MOG35-55/CFA emulsion (Hooke Kit™ MOG35-55/CFA Emulsion PTX). The first injection site was located approximately 1 cm caudal of the neckline (upper back), and the second injection site was approximately 2 cm cranial of the base of the tail (lower back). The injection volume was 0.1 mL for each injection. The pertussis toxin was administered at the described times through intraperitoneal injection at a concentration of 85 ng/dose for both injections.
# (§6) Body weight was measured three times a week (Monday, Wednesday, and Friday) starting on Day-1. Animals were scored daily for EAE starting on Day 7. In-between scores were assigned when the clinical signs fell between two below defined scores.
# [1] = test system: experimental autoimmune encephalomyelitis; assay: Experimental autoimmune encephalomyelitis (EAE) model: EAE scores, onset, incidence; assay type: in vivo, C57BI/6 mice; conditions: FTY720 (Group 5)
# Protocol: as §3, §4, §5, §6
structure (smiles),measurement,setting,value
"Cc1cc(-c2cc3c(-c4cc(=O)n(C)cc4-c4ccccc4F)cn(C)c(=O)c3[nH]2)cc(C)n1.Cl [Example 26, 2-(2,6-dimethylpyridin-4-yl)-4-(5-(2-fluorophenyl)-1-methyl-2-oxo-1,2-dihydropyridin-4-yl)-6-methyl-1,6-dihydro-7H-pyrrolo[2,3-c]pyridin-7-one hydrogen chloride]",IC50,BRD4 BD1,500 to 1000 nM
same,IC50,BRD4 BD2,< 10 nM
same,Fold Selectivity BRD4 BD1/BD2,BRD4 BD2,xxx (Fold >200 and ≤1000)
"Cc1cc(-c2cc3c(-c4cc(=O)n(C)cc4-c4ccccc4Cl)cn(C)c(=O)c3[nH]2)cc(C)n1.Cl [Example 32, 4-(5-(2-chlorophenyl)-1-methyl-2-oxo-1,2-dihydropyridin-4-yl)-2-(2,6-dimethylpyridin-4-yl)-6-methyl-1,6-dihydro-7H-pyrrolo[2,3-c]pyridin-7-one hydrogen chloride]",IC50,BRD4 BD1,> 1000 nM
same,IC50,BRD4 BD2,10 to 50 nM
same,Fold Selectivity BRD4 BD1/BD2,BRD4 BD2,xxx (Fold >200 and ≤1000)
Cc1cccc(C)c1Oc1cn(C)c(=O)cc1-c1cn(C)c(=O)c2[nH]c(-c3cccc(C(F)(F)F)c3F)cc12 [Example 98],IC50,BRD4 BD1,> 1000 nM
same,IC50,BRD4 BD2,50 to 200 nM
same,Fold Selectivity BRD4 BD1/BD2,BRD4 BD2,xx (Fold >50 and ≤200)
"Cn1cc(-c2cc(=O)n(CCO)cc2-c2ccccc2)c2cc(-c3cnn(C(F)(F)F)c3)[nH]c2c1=O [Example 60, 4-(1-(2-hydroxyethyl)-2-oxo-5-phenyl-1,2-dihydropyridin-4-yl)-6-methyl-2-(1-(trifluoromethyl)-1H-pyrazol-4-yl)-1,6-dihydro-7H-pyrrolo[2,3-c]pyridin-7-one]",IC50,BRD4 BD1,> 1000 nM
same,IC50,BRD4 BD2,10 to 50 nM
same,Fold Selectivity BRD4 BD1/BD2,BRD4 BD2,xxx (Fold >200 and ≤1000)
"CCCCCCCCc1ccc(CCC(N)(CO)CO)cc1 [FTY720, reference compound]",Mean Body Weight,EAE study: body weight; Day 0,20.3 g
same,Mean Body Weight (% of Day −1),EAE study: body weight; Day 0,100.7 % of Day −1
same,Mean Body Weight,EAE study: body weight; Day 2,19.9 g
same,Mean Body Weight (% of Day −1),EAE study: body weight; Day 2,98.4 % of Day −1
same,Mean Body Weight,EAE study: body weight; Day 5,21.2 g
same,Mean Body Weight (% of Day −1),EAE study: body weight; Day 5,105.1 % of Day −1
same,Mean Body Weight,EAE study: body weight; Day 7,21.3 g
same,Mean Body Weight (% of Day −1),EAE study: body weight; Day 7,105.4 % of Day −1
same,Mean Body Weight,EAE study: body weight; Day 9,21.8 g
same,Mean Body Weight (% of Day −1),EAE study: body weight; Day 9,108.2 % of Day −1
same,Mean Body Weight,EAE study: body weight; Day 12,21.5 g
same,Mean Body Weight (% of Day −1),EAE study: body weight; Day 12,106.5 % of Day −1
same,Mean Body Weight,EAE study: body weight; Day 14,21.6 g
same,Mean Body Weight (% of Day −1),EAE study: body weight; Day 14,107.2 % of Day −1
same,Mean Body Weight,EAE study: body weight; Day 16,21.6 g
same,Mean Body Weight (% of Day −1),EAE study: body weight; Day 16,107.0 % of Day −1
same,Mean Body Weight,EAE study: body weight; Day 19,21.6 g
same,Mean Body Weight (% of Day −1),EAE study: body weight; Day 19,106.9 % of Day −1
same,Mean Body Weight,EAE study: body weight; Day 21,21.7 g
same,Mean Body Weight (% of Day −1),EAE study: body weight; Day 21,107.5 % of Day −1
same,Mean Body Weight,EAE study: body weight; Day 23,22.0 g
same,Mean Body Weight (% of Day −1),EAE study: body weight; Day 23,109.3 % of Day −1
same,Mean Body Weight,EAE study: body weight; Day 27,21.9 g
same,Mean Body Weight (% of Day −1),EAE study: body weight; Day 27,108.3 % of Day −1
same,Mean Body Weight,EAE study: body weight; Day 28,22.0 g
same,Mean Body Weight (% of Day −1),EAE study: body weight; Day 28,108.9 % of Day −1
same,Mean Body Weight,EAE study: body weight; Day −1,20.2 g
same,Mean Body Weight (% of Day −1),EAE study: body weight; Day −1,100.0 % of Day −1
same,Mean Body Weight Change (% of Day −1),"EAE study: body weight; FTY720, mean end body weight",108.9*** % of Day −1
same,Incidence of EAE (%),[1],16.7*** %
same,Mean Day of Onset (SEM),[1],18.5 (0.5) Day
same,Mean End Score (SEM),[1],0.21 (0.14)***
same,Mean Maximum Score (SEM),[1],0.33 (0.23)***
same,Median Day of Onset,[1],>28.0 days
same,Mean EAE score,[1]; Day 7,0.00
same,Mean EAE score,[1]; Day 8,0.00
same,Mean EAE score,[1]; Day 9,0.00
same,Mean EAE score,[1]; Day 10,0.00
same,Mean EAE score,[1]; Day 11,0.00
same,Mean EAE score,[1]; Day 12,0.00
same,Mean EAE score,[1]; Day 13,0.00
same,Mean EAE score,[1]; Day 14,0.00
same,Mean EAE score,[1]; Day 15,0.00
same,Mean EAE score,[1]; Day 16,0.00
same,Mean EAE score,[1]; Day 17,0.00
same,Mean EAE score,[1]; Day 18,0.13
same,Mean EAE score,[1]; Day 19,0.25
same,Mean EAE score,[1]; Day 20,0.25
same,Mean EAE score,[1]; Day 21,0.29
same,Mean EAE score,[1]; Day 22,0.33
same,Mean EAE score,[1]; Day 23,0.29
same,Mean EAE score,[1]; Day 24,0.29
same,Mean EAE score,[1]; Day 25,0.21
same,Mean EAE score,[1]; Day 26,0.21
same,Mean EAE score,[1]; Day 27,0.21
same,Mean EAE score,[1]; Day 28,0.21
